Source: ChEMBL document CHEMBL1158893, “New icetexane and 20 norabietane diterpenes with trypanocidal activity from Dracocephalum komarovi” (2003)
In brackets after ≈: the same amount, converted by molar mass.

Test system: Trypanosoma cruzi
Experiment: Trypanocidal activity against Trypanosoma cruzi epimastigotes
Format: functional

Point of comparison: `CC(C)c1c(O)c2c(c3c1OCO3)C[C@@]1(O)CCCC(C)(C)[C@@H]1CC2=O` [CYCLOCOULTERONE], MLC 20 µM (≈ 7.21 µg/mL). Against it:
- COc1c(O)c2c(c(O)c1C(C)C)C(=O)C[C@H]1[C@]3(C)CCC[C@]21OC3 [DRACOCEPHALONE A] — 10-fold higher, 200 µM (≈ 69.3 µg/mL)
- CN(C)c1ccc(C(=C2C=CC(=[N+](C)C)C=C2)c2ccc(N(C)C)cc2)cc1.[Cl-] [GENTIAN VIOLET] — 3.2-fold lower, 6.3 µM
- COC1=C(C(C)C)C(=O)C2=C(C[C@@]34CCCC(C)(C)[C@@H]3C[C@]2(O)O4)C1=O [KOMAROVIQUINONE] — 50-fold lower, 0.4 µM (≈ 0.144 µg/mL)
